PubChem BioAssay (NCI)
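1) Cells in 96-well plates. 2) Compound, 48 h, 5 concentrations. 3) Linear interpolation between surrounding doses. 4) Unreached endpoint = highest concentration. At the GI50, growth is halved. TGI is the concentration that stops growth completely.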

What was measured:
Test in all cases: NCI tumour cell line growth inhibition, 48 h
EKVX NSCLC = test system: EKVX NSCLC
NCI-H522 lung = test system: NCI-H522 lung
HOP-62 NSCLC = test system: HOP-62 NSCLC
SN12C renal = test system: SN12C renal
SK-MEL-5 melanoma = test system: SK-MEL-5 melanoma
KM12 colon = test system: KM12 colon
SW-620 colon = test system: SW-620 colon
M14 melanoma = test system: M14 melanoma
SNB-75 CNS = test system: SNB-75 CNS
HL-60(TB) leukemia = test system: HL-60(TB) leukemia

| SMILES | GI50 (EKVX NSCLC) [µM] | TGI (EKVX NSCLC) [µM] | GI50 (NCI-H522 lung) [µM] | TGI (NCI-H522 lung) [µM] | GI50 (HOP-62 NSCLC) [µM] | TGI (HOP-62 NSCLC) [µM] | GI50 (SN12C renal) [µM] | TGI (SN12C renal) [µM] | GI50 (SK-MEL-5 melanoma) [µM] | TGI (SK-MEL-5 melanoma) [µM] | GI50 (KM12 colon) [µM] | TGI (KM12 colon) [µM] | GI50 (SW-620 colon) [µM] | TGI (SW-620 colon) [µM] | GI50 (M14 melanoma) [µM] | TGI (M14 melanoma) [µM] | GI50 (SNB-75 CNS) [µM] | TGI (SNB-75 CNS) [µM] | TGI (HL-60(TB) leukemia) [µM] | GI50 (HL-60(TB) leukemia) [µM] |
| --- | --- | --- | --- | --- | --- | --- | --- | --- | --- | --- | --- | --- | --- | --- | --- | --- | --- | --- | --- | --- |
| CCN(CC)CCNC(=O)c1cccc2c1-c1ccccc1C2=O | > 100 | > 100 | > 100 | > 100 | > 100 | > 100 | > 100 | > 100 | > 100 | > 100 | > 100 | > 100 | 90.1 | > 100 | > 100 | > 100 | > 100 | > 100 |  |  |
| COC(=O)C1C(C(=O)O)C2(c3ccccc3)C(=O)C1(c1ccccc1)C(c1ccccc1)=C2c1ccccc1 (stereo unspecified) | 18.8 | 42.3 | 16 | 34.1 | 21.2 | 41.4 | 18 | 38.9 | 12.9 | 27.6 | 16 | 38 | 19.8 | 40.2 | 19.6 | 35.7 |  |  |  |  |
| N#Cc1c2ccccc2c(Cc2ccc3c(c2)OCCOCCOCCOCCOCCO3)c2ccccc12 |  | 35.9 |  | 31.9 |  | 23.6 |  | 22.8 |  | 17.5 |  | 17.9 |  | 32.1 |  | 18 |  |  |  |  |
| COC(=O)C1=CC2C(=O)OC1C1C(=O)NC(=O)C21 (stereo unspecified) |  |  |  | > 100 |  | > 100 |  | > 100 |  | > 100 |  | > 100 |  | > 100 |  | > 100 |  | > 100 | > 100 |  |
| O=C1/C(=C\c2ccc(F)cc2)CN(C(=O)c2ccccc2F)C/C1=C\c1ccc(F)cc1 |  |  | 1.61 | 3.15 | 2.04 | 4.66 | 1.68 | 3.37 | 1.45 | 2.83 | 0.371 | 1.32 | 0.428 | 1.73 | 1.51 | 3.44 | 2.64 | 10.9 | 4.57 | 1.11 |
| C=C1C(=O)O[C@H](c2ccoc2)C[C@@H]1[C@@]1(C)CCCC2(C)C(=O)OCC21 (stereo partly specified) |  | > 100 |  | > 100 |  | > 100 |  | > 100 |  | > 100 |  | > 100 |  | > 100 |  | > 100 |  | > 100 |  |  |
| COc1cc(OCc2ccccc2)c2c(CCC(=O)O)cc(=O)oc2c1 (tested in a mixture with another compound) |  | > 100 |  | > 100 |  |  |  |  |  | > 100 |  | > 100 |  | > 100 |  | > 100 |  | > 100 | 93.7 |  |
| CCOC(=O)c1cc(=O)n(C)c(=O)n1C |  | > 100 |  | > 100 |  | > 100 |  | > 100 |  | > 100 |  | > 100 |  | > 100 |  | > 100 |  | > 100 |  |  |
| COc1ccc(Cn2cc(COc3cc(/C=C/C(=O)c4cc(OC)c(OC)c(OC)c4)ccc3OC)nn2)cc1 |  |  | 1.69 | 4.18 | 2.72 | 7.97 | 3.62 | > 100 | 3.66 | 20.5 | 3.23 | > 100 | 3.63 | > 100 | 5.6 | > 100 |  |  | 35.1 | 4.55 |
